Measured values: the NIST ThermoML archive (doi:10.1021/je5004719)

Test: xn = mol fraction of the nth substance listed
Conditions: 101 kPa, Liquid; for speed of sound: Sing-around technique in a fixed-path interferometer; for mass density: Vibrating tube method

Cc1ccccc1C [1,2-dimethylbenzene] + C1CCOCC1
Conditions | mass density, 298.15 K [kg/m3] | mass density, 303.15 K [kg/m3] | speed of sound, 298.15 K [m/s] | speed of sound, 303.15 K [m/s]
x2 = 0.0908 | 876.43 | 872.06 | 1345.3 | 1323.7
x2 = 0.1432 | 876.68 | 872.25 | 1343.1 | 1321
x2 = 0.1897 | 876.87 | 872.4 | 1340.4 | 1317.9
x2 = 0.2318 | 877.04 | 872.53 | 1337.4 | 1314.7
x2 = 0.2953 | 877.26 | 872.71 | 1332.1 | 1309.2
x2 = 0.331 | 877.39 | 872.81 | 1328.8 | 1305.9
x2 = 0.3872 | 877.57 | 872.95 | 1323.2 | 1300.4
x2 = 0.4287 | 877.7 | 873.05 | 1319 | 1296.2
x2 = 0.4792 | 877.86 | 873.17 | 1313.7 | 1291
x2 = 0.5187 | 877.99 | 873.26 | 1309.6 | 1286.9
x2 = 0.5725 | 878.16 | 873.38 | 1304.1 | 1281.4
x2 = 0.6182 | 878.31 | 873.48 | 1299.5 | 1276.8
x2 = 0.6682 | 878.47 | 873.58 | 1294.6 | 1272
x2 = 0.7187 | 878.62 | 873.67 | 1290 | 1267.3
x2 = 0.7729 | 878.78 | 873.77 | 1285.3 | 1262.5
x2 = 0.8367 | 878.94 | 873.86 | 1280.2 | 1257.3
x2 = 0.8952 | 879.05 | 873.93 | 1276.1 | 1253.1
x2 = 0.9274 | 879.1 | 873.96 | 1274 | 1251

Cc1ccccc1Cl [2-chlorotoluene] + Cc1ccccc1
Conditions | mass density, 298.15 K [kg/m3] | mass density, 303.15 K [kg/m3] | mass density, 308.15 K [kg/m3] | speed of sound, 298.15 K [m/s] | speed of sound, 303.15 K [m/s] | speed of sound, 308.15 K [m/s]
x1 = 0.0935 | 884.2 | 879.51 | 874.8 | 1302 | 1281.3 | 1260.6
x1 = 0.1346 | 893.74 | 889.04 | 884.33 | 1301.2 | 1280.6 | 1260.2
x1 = 0.1681 | 901.47 | 896.76 | 892.04 | 1300.5 | 1280.2 | 1259.9
x1 = 0.2393 | 917.7 | 912.99 | 908.26 | 1299.5 | 1279.4 | 1259.3
x1 = 0.2782 | 926.47 | 921.75 | 917.02 | 1299 | 1279 | 1259
x1 = 0.3342 | 938.97 | 934.25 | 929.51 | 1298.5 | 1278.7 | 1258.8
x1 = 0.3871 | 950.65 | 945.92 | 941.17 | 1298.1 | 1278.5 | 1258.7
x1 = 0.4375 | 961.66 | 956.92 | 952.17 | 1297.9 | 1278.3 | 1258.7
x1 = 0.4872 | 972.41 | 967.66 | 962.89 | 1297.7 | 1278.3 | 1258.8
x1 = 0.5312 | 981.84 | 977.07 | 972.3 | 1297.6 | 1278.3 | 1259
x1 = 0.5912 | 994.55 | 989.78 | 984.99 | 1297.4 | 1278.4 | 1259.3
x1 = 0.6218 | 1001 | 996.2 | 991.4 | 1297.4 | 1278.5 | 1259.5
x1 = 0.6753 | 1012.1 | 1007.3 | 1002.5 | 1297.4 | 1278.7 | 1260
x1 = 0.7231 | 1022 | 1017.2 | 1012.3 | 1297.4 | 1278.9 | 1260.4
x1 = 0.7854 | 1034.7 | 1029.9 | 1025 | 1297.6 | 1279.2 | 1261
x1 = 0.8351 | 1044.7 | 1039.9 | 1035 | 1297.7 | 1279.5 | 1261.5
x1 = 0.8824 | 1054.2 | 1049.3 | 1044.5 | 1297.9 | 1279.8 | 1262
x1 = 0.9231 | 1062.3 | 1057.4 | 1052.5 | 1298.1 | 1280.1 | 1262.3

Cc1ccccc1Cl [2-chlorotoluene] + Cc1ccccc1C
Conditions | mass density, 298.15 K [kg/m3] | mass density, 303.15 K [kg/m3] | mass density, 308.15 K [kg/m3] | speed of sound, 298.15 K [m/s] | speed of sound, 303.15 K [m/s] | speed of sound, 308.15 K [m/s]
x1 = 0.0872 | 893.06 | 888.78 | 884.5 | 1341.6 | 1321.9 | 1302.1
x1 = 0.1276 | 901.04 | 896.73 | 892.42 | 1339.4 | 1319.8 | 1300.2
x1 = 0.1754 | 910.51 | 906.16 | 901.82 | 1337 | 1317.4 | 1298
x1 = 0.2243 | 920.22 | 915.84 | 911.46 | 1334.4 | 1315 | 1295.6
x1 = 0.2765 | 930.61 | 926.19 | 921.78 | 1331.8 | 1312.4 | 1293.1
x1 = 0.3241 | 940.11 | 935.66 | 931.22 | 1329.4 | 1310.1 | 1290.8
x1 = 0.3762 | 950.54 | 946.05 | 941.57 | 1326.8 | 1307.6 | 1288.4
x1 = 0.4216 | 959.64 | 955.13 | 950.62 | 1324.6 | 1305.4 | 1286.3
x1 = 0.4932 | 974.04 | 969.48 | 964.92 | 1321.2 | 1302.1 | 1283.1
x1 = 0.5243 | 980.31 | 975.73 | 971.15 | 1319.7 | 1300.7 | 1281.8
x1 = 0.5721 | 989.96 | 985.35 | 980.74 | 1317.5 | 1298.6 | 1279.8
x1 = 0.6158 | 998.81 | 994.17 | 989.52 | 1315.5 | 1296.7 | 1278
x1 = 0.6761 | 1011 | 1006.4 | 1001.7 | 1312.7 | 1294.1 | 1275.6
x1 = 0.7245 | 1020.9 | 1016.2 | 1011.4 | 1310.6 | 1292.1 | 1273.7
x1 = 0.7865 | 1033.5 | 1028.8 | 1024 | 1307.8 | 1289.6 | 1271.3
x1 = 0.8254 | 1041.5 | 1036.7 | 1031.9 | 1306.1 | 1288 | 1269.8
x1 = 0.8795 | 1052.5 | 1047.7 | 1042.9 | 1303.8 | 1285.8 | 1267.7
x1 = 0.9192 | 1060.7 | 1055.9 | 1051 | 1302.1 | 1284.1 | 1266.1

C1CCOCC1 [tetrahydropyran] + Cc1ccccc1
Conditions | mass density, 298.15 K [kg/m3] | mass density, 303.15 K [kg/m3] | speed of sound, 298.15 K [m/s] | speed of sound, 303.15 K [m/s]
x1 = 0.0834 | 863.93 | 859.19 | 1303.2 | 1281.1
x1 = 0.1245 | 864.77 | 859.99 | 1302.3 | 1280
x1 = 0.1765 | 865.79 | 860.99 | 1301.2 | 1278.7
x1 = 0.2387 | 866.99 | 862.15 | 1299.7 | 1277.1
x1 = 0.3017 | 868.16 | 863.3 | 1298.1 | 1275.3
x1 = 0.3541 | 869.11 | 864.23 | 1296.6 | 1273.8
x1 = 0.4098 | 870.1 | 865.2 | 1295 | 1272.2
x1 = 0.4467 | 870.74 | 865.83 | 1293.9 | 1271
x1 = 0.4915 | 871.51 | 866.59 | 1292.5 | 1269.5
x1 = 0.5487 | 872.47 | 867.53 | 1290.6 | 1267.5
x1 = 0.6008 | 873.33 | 868.36 | 1288.8 | 1265.6
x1 = 0.6472 | 874.08 | 869.09 | 1287.1 | 1263.7
x1 = 0.6954 | 874.84 | 869.83 | 1285.2 | 1261.8
x1 = 0.7321 | 875.41 | 870.38 | 1283.7 | 1260.2
x1 = 0.7832 | 876.18 | 871.13 | 1281.5 | 1257.9
x1 = 0.8241 | 876.78 | 871.71 | 1279.6 | 1255.9
x1 = 0.8937 | 877.76 | 872.65 | 1276.1 | 1252.5
x1 = 0.9205 | 878.12 | 873 | 1274.6 | 1251.1
